For assay [1], the system named is αIIbβ3 CHO K1 cells. Nature of the assay: Cell adhesion inhibition assay with soluble peptides. It counts as cell-based, human. As for the experimental part: Suspensions of αIIbβ3 CHO K1 cells (100,000/mL) were incubated with cRGDFG (SEQ ID NO: 12) (300 μM) in serum-free F-12K medium with 1 mg/mL BSA (bovine serum albumin) and 1× penicillin/streptomycin for 15 minutes at 37° C. and 5% CO2. These suspensions were then supplemented with soluble peptides at concentrations ranging from 1 pM to 100 μM and further incubated for 15 minutes at 37° C. and 5% CO2. Cells were then added to monolayers and incubated at 37° C. and 5% CO2 for 2 hours, then media was exchanged for F-12K medium supplemented with 10% FBS and 1× penicillin/streptomycin. The substrates were further incubated for 2 hours. The substrates were washed gently with warm PBS, and adherent cells were immediately fixed and permeabilized with 4% formaldehyde and 0.5% Triton-X for 30 minutes. Fixed cells were stained with DAPI, visualized and photographed with a 20× as described previously. The number of adherent cells per field of view was counted using Image J. Cells were counted in at least five fields for each substrate, and each experiment was repeated 3 times. The degree of inhibition is reported as a percentage of cells that adhere relative to control experiments in the absence of soluble peptide.
To verify that the two peptides interact with the same site on αIIbβ3, it was determined whether the peptides GRGDS (SEQ ID NO: 4), HHLGGAKQAGDV (SEQ ID NO: 1) and AGDV (SEQ ID NO: 22), in soluble form, could block the attachment of cells to the monolayers presenting these ligands. In these experiments identical suspensions of cells (100,000/mL) were first incubated in serum-free F-12K medium supplemented with cRGDFG (SEQ ID NO: 12) (300 μM) and with the soluble peptides in concentrations ranging from 1 pM to 100 μM and then applied the mixtures to monolayers presenting either the GRGDSC (SEQ ID NO: 11), HHLGGAKQAGDVC (SEQ ID NO: 21), or AGDVC (SEQ ID NO: 17) peptide (SEQ ID NO: 17) (FIG. 5). Cells were allowed to attach for 2 hours, after which media was exchanged to 10% FBS F-12K medium (supplemented with cRGDFG (SEQ ID NO: 12)) and cultured for an additional 2 hours. The slides were then rinsed and nuclei were stained with DAPI to facilitate counting of the adherent cells. […] This experiment again verifies that the cell attachment is mediated by the immobilized peptide alone and not non-specific interactions between other cell-surface molecules and the monolayer.

Assay [2] relates to αIIbβ3 CHO K1 cells. The assay can be described thus: Cell adhesion assay: αIIbβ3 CHO K1 cells on SAMs presenting immobilized peptides. It counts as cell-based, human. As to conditions: 0.5% peptide SAM; in presence of 300 μM cRGDFG. As for the experimental part: Monolayers were prepared as described (Houseman, et al., 2003). Glass coverslips were sonicated for 30 minutes in deionized ultrafiltered (DIUF) water and then 30 minutes in ethanol and then dried under a stream of nitrogen. Titanium (4 nm) and then gold (29 nm) were evaporated onto the coverslips using an electron beam evaporator (Boc Edwards) at a rate of 0.05-0.10 nm/s and at a pressure of 1 μTorr. The gold-coated coverslips were immersed in an ethanolic solution of maleimide-terminated disulfide (1%) and tri(ethylene glycol)-terminated disulfide (99%) overnight at room temperature. The total disulfide concentration was 1 mM. The substrates were washed with DIUF water, ethanol and then dried under a stream of nitrogen.
The pcDNA3.1 vectors that express human αIIb or β3, respectively, have been described previously (see e.g., Litvinov et al. (2006) Biochemistry, 45: 4957-4964). CHO K1, BHK 21 and HT1080 cells were purchased from ATCC. All CHO cells were cultured at 37° C. and 5% CO2 using F12K medium supplemented with 10% FBS and pen/strep. […] CHO K1 cells were transfected with αIIb and β3 cDNA with FuGENE following the supplier's protocol. Transfected cells were selected with 1 mg/mL zeocin and 1 mg/mL geneticin.
Cysteine-terminated peptides were immobilized onto maleimide-presenting SAMs by adding 40 μL of 1 mM peptide solution to the biochip and incubating at 37° C. for 1 hour. Substrates were rinsed with DIUF water and ethanol and dried under a stream of nitrogen. αIIbβ3 CHO K1 cells were detached from culture plates with 1 mM EGTA/2 mM EDTA in PBS (phosphate-buffered saline), rinsed with serum-free F-12K medium, centrifuged and resuspended in serum-free F-12K medium supplemented with cRGDFG (SEQ ID NO: 12) (300 μM) and 1× penicillin/streptomycin. After 15-minute of incubation, cells (200,000/mL) were added to substrates in 24-well culture plates. After 2 hour incubation at 37° C. and 5% CO2, media was exchanged for F-12K medium supplemented with 10% FBS, 1× penicillin/streptomycin and cRGDFG (SEQ ID NO: 12) (300 μM). After 2 hours, the substrates were washed gently with warm PBS, and adherent cells were immediately fixed with 4% formaldehyde for 30 minutes, visualized with a 20× objective of a Zeiss Axiovert 200 inverted microscope, and photographed. For cell adhesion assays mediated by Ac-GXGDSC (SEQ ID NO: 26), αIIbβ3 CHO K1 cells were incubated on a 5×4 circle (1 mm diameter) array for 1 hour with serum-free F-12K medium supplemented with cRGDFG (SEQ ID NO: 12) (300 μM) and 1× penicillin/streptomycin, followed by media exchange to F-12K medium supplemented with 10% FBS, 1× penicillin/streptomycin and cRGDFG (SEQ ID NO: 12) (300 μM. The substrates were washed with warm PBS, and adherent cells were immediately fixed and permeabilized with 4% formaldehyde and 0.5% Triton-X for 30 minutes. Fixed cells were stained with DAPI, visualized and photographed with a 20× objective as described. The number of adherent cells per field of view was counted using Image J software. Cells were counted in at least three fields for each circle, and each experiment was repeated 3 times. The degree of adhesion is reported as a percentage of cells that adhere relative to control experiments with the peptide Ac-GRGDSC (SEQ ID NO: 28).
Monolayers were prepared that presented a mixture of maleimide groups and tri(ethylene glycol) groups with the former present at a density of 0.5% (relative to total alkanethiolate). The monolayers were treated with cysteine-terminated peptides to immobilize the ligands (FIG. 1A). In each case mass spectrometry was used to verify immobilization of the peptides in high yield (Su et al., 2002).
The adhesion and spreading of αIIbβ3 CHO K1 cells to monolayers presenting GRGDSC (SEQ ID NO: 11), HHLGGAKQAGDVC (SEQ ID NO: 21) and a mixture of both peptides was compared. […]

The target in assay [3] is T1, human αIIbβ3 integrin on transfected CHO K1 cells (human, UniProt P08514 32-1039; P05106 27-788).
T1 construct: whole, on cells; CHO K1 cells transfected with human αIIb and β3 cDNA; about 30% of the cells expressed the receptor; also called platelet receptor; platelet integrin
The assay can be described thus: adhesion of αIIbβ3 CHO K1 cells to the peptide monolayer, 300 µM cRGDFG present. As to the method:
For cell adhesion assays mediated by Ac-GXGDSC (SEQ ID NO: 26), αIIbβ3 CHO K1 cells were incubated on a 5×4 circle (1 mm diameter) array for 1 hour with serum-free F-12K medium supplemented with cRGDFG (SEQ ID NO: 12) (300 μM) and 1× penicillin/streptomycin, followed by media exchange to F-12K medium supplemented with 10% FBS, 1× penicillin/streptomycin and cRGDFG (SEQ ID NO: 12) (300 μM. The substrates were washed with warm PBS, and adherent cells were immediately fixed and permeabilized with 4% formaldehyde and 0.5% Triton-X for 30 minutes. Fixed cells were stained with DAPI, visualized and photographed with a 20× objective as described. The number of adherent cells per field of view was counted using Image J software. Cells were counted in at least three fields for each circle, and each experiment was repeated 3 times. The degree of adhesion is reported as a percentage of cells that adhere relative to control experiments with the peptide Ac-GRGDSC (SEQ ID NO: 28).
CHO K1 cells were used that were transfected with the αIIbβ3 receptor, as described previously (Salsmann et al., 2005). Cells were transfected with pcDNA3.1 vectors that coded for αIIb and β3 using FuGENE6 and analyzed by FACS after labeling with the PAC-1 (anti-αIIbβ3) and H-96 (anti-β3) antibodies. Approximately 30% of the cells expressed the receptor (FIG. 2A). Because the CHO K1 cells also express αv and α5 integrins on their surfaces, adhesion experiments were performed in the presence of the cyclic peptide cRGDFG (SEQ ID NO: 12), where F is a D amino acid. […] Treatment of transfected cells with both the cyclic peptide inhibitor and the PAC-1 antibody, however, prevented cell adhesion to the monolayer (FIG. 2F).

Where [4] appears, read: monolayers presenting GRGDSC, HHLGGAKQAGDVC or AGDVC, soluble peptide 1 pM to 100 μM, 300 μM cRGDFG.

This note sets out measurements from patent publication US20120252730A1, “PLATELET AGGREGATION INHIBITORS” (UNIVERSITY OF CHICAGO, priority 2009, published 2012).

Ends that are not written are not given here. maleimide monolayer = not defined here

As for AGDV (completely synthesized peptide), the entries for the “block of cell attachment by soluble peptide” value (“block of cell attachment” for short) with αIIbβ3 CHO K1 cells [1] (monolayer presenting GRGDS) and in the assay with αIIbβ3 CHO K1 cells [1] (setting [4]) were “blocked cell attachment” and “could block cell attachment to monolayers presenting any of the three peptides”, respectively.

On to GADGV (scrambled peptide), for which the “block of cell attachment” value in the assay with αIIbβ3 CHO K1 cells [1] (setting [4]) was “had no effect on cell adhesion”. With GGRDGS (scrambled peptide), the “block of cell attachment” value in the assay with αIIbβ3 CHO K1 cells [1] (setting [4]) is “had no effect on cell adhesion”. In the case of GHHLGGADQAGKV (scrambled peptide), in the assay on αIIbβ3 CHO K1 cells [1] (setting [4]), the “block of cell attachment” value is “had no effect on cell adhesion”.

As for GRGDS (synthesized peptide inhibitor), the “block of cell attachment” value in the assay with αIIbβ3 CHO K1 cells [1] (setting [4]) was “could block cell attachment to monolayers presenting any of the three peptides”. With “HHLGGAKQAGDV (not fully specified (C-terminus))”, the “block of cell attachment” value in the assay on αIIbβ3 CHO K1 cells [1] (monolayer presenting GRGDS) was “blocked cell attachment”; in the assay on αIIbβ3 CHO K1 cells [1] (setting [4]), “could block cell attachment to monolayers presenting any of the three peptides”. Take “KQAGDVC (completely synthesized peptide)”: the “adhesion of αIIbβ3 CHO K1 cells to monolayer presenting the peptide” value with αIIbβ3 CHO K1 cells [2] was “adhered and spread”.

With QAGDVC (completely synthesized peptide), the “adhesion of αIIbβ3 CHO K1 cells to monolayer presenting the peptide” value in the assay on αIIbβ3 CHO K1 cells [2] is “adhered”. For the molecule AGDVC(maleimide monolayer)-NH2 (not fully specified; reading uncertain, also called 0.5% AGDVC SAM) [AGDVC (SEQ ID NO: 17), immobilized on a self-assembled monolayer], the binding result in assay [3] is listed as “binds”.

B1: QAGDVC (SEQ ID NO: 16), immobilized on a self-assembled monolayer (peptide)
peptide: QAGDVC-NH2
modifications: not fully specified (residue 6); also: C-terminal Cys thiol linked to maleimide of monolayer
notes: also called 0.5% QAGDVC SAM
Consider B1, for which, in assay [3], the binding result was “binds”.

For the molecule GGAKQAC(maleimide monolayer)-NH2 (reading uncertain, also called 0.5% GGAKQAC SAM) [GGAKQAC (SEQ ID NO: 15), immobilized on a self-assembled monolayer], the binding result in assay [3] is on record as “no binding”. With GGRDGSC(maleimide monolayer)-NH2 (reading uncertain, Control; also called 0.5% GGRDGSC) [GGRDGSC (SEQ ID NO: 70), scrambled peptide immobilized on a self-assembled monolayer], the binding result in assay [3] was “no binding”. On to HHLGGAC(maleimide monolayer)-NH2 (reading uncertain, also called 0.5% HHLGGAC SAM) [HHLGGAC (SEQ ID NO: 13), immobilized on a self-assembled monolayer], for which the binding result in assay [3] is recorded as “no binding”.

B2: KQAGDC (SEQ ID NO: 19), immobilized on a self-assembled monolayer (peptide)
peptide: KQAGDC-NH2
modifications: not fully specified (residue 6); also: C-terminal Cys thiol linked to maleimide of monolayer
notes: also called 0.5% KQAGDC SAM
As to B2, in assay [3], the binding result is reported as “binds”.

B3: KQAGC (SEQ ID NO: 20), immobilized on a self-assembled monolayer (peptide)
peptide: KQAGC-NH2
modifications: not fully specified (residue 5); also: C-terminal Cys thiol linked to maleimide of monolayer
notes: also called 0.5% KQAGC SAM
Take B3: in assay [3], the binding result was “no binding”.

B4: GHHLGGADQAGKVC (SEQ ID NO: 71), scrambled peptide immobilized on a self-assembled monolayer (peptide)
peptide: GHHLGGADQAGKVC-NH2
modifications: not fully specified (residue 14); also: C-terminal Cys thiol linked to maleimide of monolayer
notes: Control
Turning to B4, in assay [3], the binding result is on record as “no binding”. For the molecule GDVC(maleimide monolayer)-NH2 (reading uncertain, also called 0.5% GDVC SAM) [GDVC (SEQ ID NO: 18), immobilized on a self-assembled monolayer], the binding result in assay [3] was “no binding”. On the same count and under the same terms, then KQAGDVC(maleimide monolayer)-NH2 (reading uncertain, also called 0.5% KQAGDVC SAM) [KQAGDVC (SEQ ID NO: 14), immobilized on a self-assembled monolayer], with “binds”.
